In PubChem BioAssay AID1918944 (Molecular Pharmacology Branch, DTP, NCI, 2023):
Where “and” joins values, the source holds several entries; their conditions need not be identical. Identical values can stand only once.

Tested on: 786-0 complex spheroid viability
Assay: Anticancer human tumor 786-0 cell line growth inhibition;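 further: spheroids exposed to agents for seven days before readout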
Conditions: for viability, T/C: stronger effect = lower value; active means viability on the fitted dose curve at most 10% of control; inactive means the rest
Source text: Multicellular complex tumor spheroid response to LSD1 Inhibitor Iadademstat in combination with a variety of drugs and investigational agents in selected tumor cell lines
The current study was undertaken to assess response to LSD1 inhibitors in combination with standard-of-care drugs and investigational agents in solid tumor complex spheroid models as well as in the K-562 leukemia. Complex spheroids include a stromal component modeled by human endothelial cells (HUVEC) and fibroblasts modeled by human mesenchymal stem cells (MSCs). The concentration ranges selected for each drug and investigational agent were based upon clinically achievable concentrations if the clinical Cmax of the agent was known.
Compounds. The drugs and investigational agents used in this study are listed on Table 1. All of the agents used, including staurosporine (NSC755774) and gemcitabine (NSC613327), were obtained from the Developmental Therapeutics Program, NCI. FDA-approved anticancer drugs are available from the NCI at http://dtp.nci.nih.gov/branches/dscb/oncology_drugset_explanation.html. Drugs and investigational agents were >95% pure by proton nuclear magnetic resonance (NMR) and liquid chromatography/mass spectrometry (LC/MS). Stock solutions were prepared at 400x in DMSO, stored at -70 degrees C, and diluted in fresh medium prior to their use. The final concentration of DMSO in cell culture wells never exceeded 0.25% (v/v). The FDA-approved anticancer drug set is available from the Developmental Therapeutics Program at https://dtp.cancer.gov/organization/dscb/obtaining/available_plates.htm. All drugs and investigational agents were tested over a range starting from a high concentration at or near the clinical Cmax and decreasing in half-log increments. If the clinical Cmax for an agent had not been determined, the highest concentration tested was 10 microM.
Cell Lines. The patient-derived cancer cell (PDC) lines: 292921-168-R-J2-PDC, K24384-001-R-PDC, and 521955-158-R2-J5-PDC pancreatic carcinomas, 556581-035-R-J1 ovarian carcinoma, 324938-238-R-J1-PDC, 855422-203-R-J1-PDC and 883617-216-R-J1-PDC urothelial bladder carcinomas, 743489-274-T-PDC renal cell carcinoma, 138582-R-J1 Merkel cell tumor, K60290-347-R-J1 and K57222-313-R-J1-PDC glioblastomas, 653999-131-R-J2-PDC, LG0703-F948-PDC, and 349418-098-R-PDC non-small cell lung carcinomas, 885512-296-R-J2-PDC, 171881-019-R-J1-PDC breast carcinomas and 186277-243-T-J2-PDC and 233499-124-R-J2-PDC colon carcinomas were obtained from the NCI Patient-Derived Models Repository (PDMR, https://pdmr.cancer.gov). The established cell lines NCI/ADR-RES (RRID:CVCL_14520 and OVCAR-5 (RRID:CVCL_1628) ovarian carcinomas, 786-O (RRID:CVCL_1051) and A498 (RRID:CVCL_A498) renal cell carcinoma, NCI-H211 (ATCC, cat. CRL-5824; RRID:CVCL_1529), NCI-H196 (ATCC, cat. CRL-5823, RRID:CVCL_1509), SW 1271 (ATCC, cat. CRL-2177, RRID:CVCL_1716) and NCI-H1876 (ATCC, cat. CRL-5902, RRID:CVCL_1503) small cell lung carcinomas, MDA-MB-231 (RRID:CVCL_0062) and MDA-MB-468 (RRID:CVCL_0419)breast carcinomas (10-12). Pooled donor human umbilical vein endothelial cells (HUVEC, Lonza, cat. CC-2519) and human mesenchymal stem cells (hMSC, Lonza, cat. PT-2501) were purchased from Lonza (Walkersville, MD).
Cell Culture. All cells were maintained in an incubator at 37 degrees C and 5% CO2 with 95% humidity. The PDC lines were cultured according to standard operating procedures established by the NCI PDMR (https://pdmr.cancer.gov). Briefly all PDCs were thawed and cultured in Matrigel-coated flasks prepared with a working solution of 1X Ham's F-12 nutrient mix, without supplementation (Invitrogen, Waltham, MA, cat. 11765054), 100 U/mL penicillin-streptomycin (Invitrogen, cat. 15140122), and 2.5% Matrigel (Corning Inc., Corning, NY, cat. 354248) for the first three passages. […]

[1] = curve of first compound, second compound 0.1 µM
[2] = curve of first compound, second compound 0.316 µM
[3] = curve of first compound, second compound 1 µM
[4] = curve of first compound, second compound 3.16 µM
[5] = curve of first compound, second compound 10 µM

COc1cc(C2c3cc4c(cc3C(OC3OC5COC(C)OC5C(O)C3O)C3COC(=O)C23)OCO4)cc(OC)c1O (centres undefined) + NC1CCC(NC2CC2c2ccccc2)CC1
115 nM: IC50 [5]
inactive: viability, T/C (second compound 0.1 µM, first compound 0.00949 µM) 115% | viability, T/C (second compound 0.1 µM, first compound 0.03 µM) 105% | viability, T/C (second compound 0.1 µM, first compound 0.0949 µM) 61.1% | viability, T/C (second compound 0.1 µM, first compound 0.3 µM) 44.3% | viability, T/C (second compound 0.1 µM, first compound 0.949 µM) 22% | viability, T/C (second compound 0.1 µM, first compound 3 µM) 9.16% | viability, T/C (second compound 0.316 µM, first compound 0.00949 µM) 122% | viability, T/C (second compound 0.316 µM, first compound 0.03 µM) 119% | viability, T/C (second compound 0.316 µM, first compound 0.0949 µM) 65.7% | viability, T/C (second compound 0.316 µM, first compound 0.3 µM) 45.8% | viability, T/C (second compound 0.316 µM, first compound 0.949 µM) 19.4% | viability, T/C (second compound 0.316 µM, first compound 3 µM) 8.96% | viability, T/C (second compound 1 µM, first compound 0.00949 µM) 118% | viability, T/C (second compound 1 µM, first compound 0.03 µM) 110% | viability, T/C (second compound 1 µM, first compound 0.0949 µM) 66.4% | viability, T/C (second compound 1 µM, first compound 0.3 µM) 40.7% | viability, T/C (second compound 1 µM, first compound 0.949 µM) 18.8% | viability, T/C (second compound 3.16 µM, first compound 0.00949 µM) 107% | viability, T/C (second compound 3.16 µM, first compound 0.03 µM) 104% | viability, T/C (second compound 3.16 µM, first compound 0.0949 µM) 56.2% | viability, T/C (second compound 3.16 µM, first compound 0.3 µM) 34.4% | viability, T/C (second compound 3.16 µM, first compound 0.949 µM) 17.1% | viability, T/C (second compound 3.16 µM, first compound 3 µM) 7.91% | viability, T/C (second compound 10 µM, first compound 0.00949 µM) 81.6% | viability, T/C (second compound 10 µM, first compound 0.03 µM) 79.6% | viability, T/C (second compound 10 µM, first compound 0.0949 µM) 48.1% | viability, T/C (second compound 10 µM, first compound 0.3 µM) 33.2% | viability, T/C (second compound 10 µM, first compound 0.949 µM) 16.4%
216 nM: IC50 [2]
203 nM: IC50 [1]
149 nM: IC50 [4]
199 nM: IC50 [3]
active: viability, T/C (second compound 1 µM, first compound 3 µM) 8.18% | viability, T/C (second compound 10 µM, first compound 3 µM) 4.68%

CCc1c2c(nc3ccc(O)cc13)-c1cc3c(c(=O)n1C2)COC(=O)[C@]3(O)CC
active: viability, T/C (compound 0.000949 µM) 6% and 6.39% | viability, T/C (compound 0.003 µM) 4.1% and 4.99% | viability, T/C (compound 0.00949 µM) 3.66% and 5.52% | viability, T/C (compound 0.03 µM) 3.36% and 6.78% | viability, T/C (compound 0.0949 µM) 4.94% and 9.67% | viability, T/C (compound 0.3 µM) 3.44% and 9.65%
< 0.949 nM: IC50 (curve of compound)

COc1cc(Nc2ncc3c(n2)-c2ccc(Cl)cc2C(c2c(F)cccc2OC)=NC3)ccc1C(=O)O + NC1CCC(NC2CC2c2ccccc2)CC1
117 nM: IC50 [5]
609 nM: IC50 [1]
451 nM: IC50 [3]
inactive: viability, T/C (second compound 0.1 µM, first compound 0.00316 µM) 114% | viability, T/C (second compound 0.1 µM, first compound 0.01 µM) 97.2% | viability, T/C (second compound 0.1 µM, first compound 0.0316 µM) 80.7% | viability, T/C (second compound 0.1 µM, first compound 0.1 µM) 68.8% | viability, T/C (second compound 0.1 µM, first compound 0.316 µM) 57.1% | viability, T/C (second compound 0.1 µM, first compound 1 µM) 44.5% | viability, T/C (second compound 0.316 µM, first compound 0.00316 µM) 116% | viability, T/C (second compound 0.316 µM, first compound 0.01 µM) 93.2% | viability, T/C (second compound 0.316 µM, first compound 0.0316 µM) 73.2% | viability, T/C (second compound 0.316 µM, first compound 0.1 µM) 65.9% | viability, T/C (second compound 0.316 µM, first compound 0.316 µM) 54.1% | viability, T/C (second compound 0.316 µM, first compound 1 µM) 43.7% | viability, T/C (second compound 1 µM, first compound 0.00316 µM) 108% | viability, T/C (second compound 1 µM, first compound 0.01 µM) 91% | viability, T/C (second compound 1 µM, first compound 0.0316 µM) 71.8% | viability, T/C (second compound 1 µM, first compound 0.1 µM) 66.9% | viability, T/C (second compound 1 µM, first compound 0.316 µM) 53.9% | viability, T/C (second compound 1 µM, first compound 1 µM) 42.5% | viability, T/C (second compound 3.16 µM, first compound 0.00316 µM) 102% | viability, T/C (second compound 3.16 µM, first compound 0.01 µM) 82% | viability, T/C (second compound 3.16 µM, first compound 0.0316 µM) 60.3% | viability, T/C (second compound 3.16 µM, first compound 0.1 µM) 59.1% | viability, T/C (second compound 3.16 µM, first compound 0.316 µM) 51% | viability, T/C (second compound 3.16 µM, first compound 1 µM) 40.6% | viability, T/C (second compound 10 µM, first compound 0.00316 µM) 80.2% | viability, T/C (second compound 10 µM, first compound 0.01 µM) 64.9% | viability, T/C (second compound 10 µM, first compound 0.0316 µM) 53.2% | viability, T/C (second compound 10 µM, first compound 0.1 µM) 56.4% | viability, T/C (second compound 10 µM, first compound 0.316 µM) 46.4% | viability, T/C (second compound 10 µM, first compound 1 µM) 39.7%
480 nM: IC50 [2]
233 nM: IC50 [4]

Nc1ncn(C2CC(O)C(CO)O2)c(=O)n1 (centres undefined)
inactive: viability, T/C (compound 0.00316 µM) 101% and 107% | viability, T/C (compound 0.01 µM) 92.9% and 108% | viability, T/C (compound 0.0316 µM) 87.4% and 97.4% | viability, T/C (compound 0.1 µM) 77.8% and 93.8% | viability, T/C (compound 0.316 µM) 68.4% and 82.3% | viability, T/C (compound 1 µM) 53.7% and 76.3%
> 1000 nM: IC50 (curve of compound)
